{"source": "patent US11981642B1", "about": "“4-(4,5-bis(4-bromophenyl)-2-(4-chlorophenyl)-1H-imidazol-1-yl)butanoic acid as an antimicrobial compound” (priority 2023, dated 2024)", "tested_on": "different microbes (Bacillus cereus, Staphylococcus aureus, Pseudomonas aeruginosa, Escherichia coli, Aspergillus flavus, Chrysosporium keratinophilum)", "test": "Antimicrobial testing, agar plate disc-diffusion method", "type": "cell-based", "details": "screened against gram-positive and gram-negative bacteria and fungi; result in words only, no inhibition zones printed", "method": "The agar plate disc-diffusion method was applied. Sterilized filter papers (6 mm in diameter) were wetted with 10 μL of a solution of 4-(4,5-bis(4-bromophenyl)-2-(4-chlorophenyl)-1H-imidazol-1-yl)butanoic acid (V) to be tested, containing 10 mg/mL in DMSO, and the discs were allowed to air dry. The discs were then placed onto the surface of agar plates (nutrient agar for bacteria and Sabouraud's dextrose agar for fungi) seeded with the test organism. Each plate contained 15 mL of the agar medium, previously seeded with 0.2 mL of the broth culture of each organism pregrown for 18 hours. The plates were incubated at 37° C. for 48 hours, and 72 hours for fungi. The inhibition zones was measured in mm. Discs impregnated with DMSO were used as a control, and its inhibition zone was subtracted from the tested compound actual inhibition zone."}
{"smiles": "O=C(O)CCCn1c(-c2ccc(Cl)cc2)nc(-c2ccc(Br)cc2)c1-c1ccc(Br)cc1", "note": "[V, 4-(4,5-bis(4-bromophenyl)-2-(4-chlorophenyl)-1H-imidazol-1-yl)butanoic acid]", "values": [{"measurement": "antimicrobial activities against different microbes", "result": "excellent antimicrobial activities"}]}
